Broadly, the CC50 is the concentration giving 50% cytotoxicity. What is called EC50 is the concentration that produces a half-maximal response. As a reminder, the EC90 is the concentration at which the effect reaches the 90% level.

Data set [1] in a line: Cytotoxicity against human HuH7 cells. The class given is cell-based, Huh-7.
The subject of data set [2] is Hepatitis B virus. The experiment in a line: Antiviral activity against entecavir-resistant Hepatitis B virus harboring L180M/M204V/S202G triple mutant infected in human HuH7 cells. It is filed as functional, organism-based. Conditions: Huh-7.
For data set [3], the system named is HepG2. Description: Mitochondrial toxicity in human HepG2 cells assessed as lactate dehydrogenase release up to 100 uM. It is filed as cell-based.
Data set [4] relates to Hepatitis B virus. Description: Antiviral activity against wild type Hepatitis B virus infected in human HuH7 cells. Conditions: Huh-7. The class given is functional, organism-based.
For data set [5], the system named is Hepatitis B virus. The experiment in a line: Selectivity ratio of EC50 for entecavir-resistant Hepatitis B virus harboring L180M/M204V/S202G triple mutant to EC50 for wild type Hepatitis B virus. The class given is functional.
The subject of data set [6] is HepG2. Description: Mitochondrial toxicity in human HepG2 cells assessed as lactate dehydrogenase release up to 200 uM. It is filed as cell-based.

Molecule `C=C1[C@@H](n2cnc3c(N)ncnc32)[C@H](F)[C@H](O)[C@H]1CO` showed a CC50 in data set [1] of over 300000 nM. Besides, in the data set on Hepatitis B virus [2], it took 670 nM to reach a half-maximal effect (EC50). In addition, in the data set on HepG2 [3], the Activity entry is reported as “Non-toxic”. Moreover, in the data set with Hepatitis B virus [4], the EC50 was 548 nM and the 90% effect level (EC90) was put at 6000 nM.
In data set [1], `C=C1[C@@H](n2cnc3c(N)ncnc32)[C@H](F)[C@H](O)[C@H]1COP(=O)(N[C@@H](C)C(=O)OC)Oc1ccccc1` (stereo not given in full) had a CC50 of over 300000 nM. This molecule came in with an EC50 in the data set with Hepatitis B virus [2] of 54 nM. In addition, in the data set with Hepatitis B virus [4], the EC50 turned out to be 62 nM and the EC90 came out at 460 nM.
As to `C=C1[C@H](CO)[C@@H](O)C[C@@H]1n1cnc2c(=O)[nH]c(N)nc21.O` [ENTECAVIR], the “Ratio EC50” value with Hepatitis B virus [5] worked out at 150. In data set [1], this molecule came in with a CC50 of 28000 nM. The midpoint of the response in the data set on Hepatitis B virus [2], the EC50, lay at 1200 nM. Moreover, in the data set on Hepatitis B virus [4], a half-maximal effect (EC50) was put at 8 nM and the 90% effect level (EC90) was put at 33 nM.
In turn, `Nc1ccn([C@@H]2CS[C@H](CO)O2)c(=O)n1` [LAMIVUDINE] registered a CC50 in data set [1] of over 300000 nM. For the same molecule, the EC50 in the data set with Hepatitis B virus [2] is over 500000 nM. Also, the Activity entry in the data set with HepG2 [6] is recorded as “Non-toxic”. In the data set with Hepatitis B virus [4], this molecule displayed an EC50 of 56 nM and an EC90 of 142 nM.
With `Cc1cn([C@H]2C[C@H](N=[N+]=[N-])[C@@H](CO)O2)c(=O)[nH]c1=O` [ZIDOVUDINE], the Activity result in the data set on HepG2 [6] is listed as “Toxic”.

The values above are taken from ChEMBL document CHEMBL2321711, “2'-Fluoro-6'-methylene-carbocyclic adenosine phosphoramidate (FMCAP) prodrug: in vitro anti-HBV activity against the lamivudine-entecavir resistant triple mutant and its mechanism of action” (Bioorg Med Chem Lett, 2013).
